Measurements from patent publication US20210037830A1, “PHYTOTOXIC MICRONUTRIENT COMBINATIONS FOR SELECTIVE CONTROL OF INVASIVE PLANT SPECIES” (Edaphix, LLC, priority 2019, published 2021).
Like-named read-outs stand apart in the source and are kept apart here.

How the values were obtained:
[1] = system: seed geranium (Pelargonium×hortorum); conditions: in combination with nitrogen, phosphorus, and potassium; cited from earlier work
[2] = system: humans; conditions: cited from earlier work
[3] = system: French marigold; conditions: in vivo; cited from earlier work
[4] = system: chlorophyllitic plants; assay: Photosynthetic disruption by glyphosate; format: in vivo
Experimental: Extensive research has documented that plants are often sensitive to relatively minute concentrations or exposures to unique synthetic compounds or combinations of naturally occurring elements, including micronutrients. For example, glyphosate (aka ROUNDUP®, a synthetic Monsanto/Bayer product) is effective at causing photosynthetic disruption in chlorophyllitic plants at an application rate of as little as 0.75 pounds active ingredient per acre, which equates to only approximately 8 mg/square foot of application, equivalent to approximately 14 ppm application rate. The American Phytopathological Society (APS) reported that micronutrients are generally toxic when present in high amounts, although ‘high concentrations’ are not clearly defined, and little toxicity have been reported at exceptionally low micronutrient concentrations. This occurrence is known as micronutrient toxicity syndrome (MTS). […] In addition, plants can vary considerably from species to species in their susceptibility to nutrient toxicities. For example, Lee and others (1996) reported inducing seed geranium (Pelargonium×hortorum) micronutrient toxicity symptoms by applying nutrient solutions containing 0.5 mg/L B, Cu, or Zn, or as little as 0.25 mg/L Mo, in combination with nitrogen, phosphorus, and potassium. […]

[5] = system: chlorophyllitic plants; conditions: in vivo; cited from earlier work
[6] = system: humans; conditions: 2005 carcinogen assessment guidelines; cited from earlier work

[Zn] [Zn, zinc]
nutrient solution concentration inducing micronutrient toxicity symptoms [1]: 0.5 mg/L

OB(O)O [boric acid]
endocrine disruptor classification [2]: neither classified as endocrine disruptors

[B] [boron]
endocrine disruptor classification [2]: neither classified as endocrine disruptors | concentration inducing micro-nutrient toxicity [3]: 500 ng/mL

[Cu] [copper]
concentration inducing micro-nutrient toxicity [3]: 4000 ng/mL

O=C(O)CNCP(=O)(O)O [glyphosate]
application rate effective at causing photosynthetic disruption ([4]; equates to the rate per acre): approximately 8 mg/square foot | application rate effective at causing photosynthetic disruption ([4]; equivalent application rate): approximately 14 ppm | application rate effective at causing photosynthetic disruption [5]: 0.75 pounds active ingredient per acre

[Mn+2] [manganese]
concentration inducing micro-nutrient toxicity [3]: 1000 ng/mL

[Mo] [molybdenum]
concentration inducing micro-nutrient toxicity [3]: 5000 ng/mL

borate salts
U.S. EPA carcinogenicity classification [6]: not likely to be carcinogenic to humans | endocrine disruptor classification [2]: neither classified as endocrine disruptors
